Results published in the NIST ThermoML archive (doi:10.1021/je3013205).

Assay: xn = mol fraction of the nth substance listed
Details: 101 kPa, Liquid, Vibrating tube method

NCCO [2-aminoethan-1-ol] + OCCO
mass density [kg/m3]
Details	x2 = 0	x2 = 0.1002	x2 = 0.2	x2 = 0.2998	x2 = 0.3999	x2 = 0.5001	x2 = 0.5999	x2 = 0.7	x2 = 0.8002	x2 = 0.8999
283.15 K	1024.11	1035.45	1046.35	1056.77	1066.86	1076.47	1085.82	1094.87	1103.84	1112.47
293.15 K	1016.23	1027.68	1038.7	1049.24	1059.48	1069.16	1078.59	1087.73	1096.76	1105.44
303.15 K	1008.32	1019.88	1031.01	1041.67	1052.04	1061.82	1071.33	1080.56	1089.64	1098.37
313.15 K	1000.37	1012.03	1023.26	1034.05	1044.53	1054.42	1064.02	1073.32	1082.46	1091.24
323.15 K	992.364	1004.13	1015.46	1026.35	1036.96	1046.93	1056.62	1066.01	1075.21	1084.05
333.15 K	984.301	996.181	1007.58	1018.58	1029.3	1039.37	1049.14	1058.6	1067.87	1076.77
343.15 K	976.153	988.118	999.618	1010.71	1021.54	1031.7	1041.55	1051.09	1060.42	1069.37

CO [methanol] + NCCO
x1 = 1
Details	mass density [kg/m3]
283.15 K	801.254
293.15 K	791.866
303.15 K	782.43
313.15 K	772.902
323.15 K	763.244
333.15 K	753.389

CO [methanol] + NCCOCCO
x1 = 1
Details	mass density [kg/m3]
283.15 K	801.254
293.15 K	791.866
303.15 K	782.43
313.15 K	772.902
323.15 K	763.244
333.15 K	753.389

CC(C)O [propan-2-ol] + NCCO
x1 = 1
Details	mass density [kg/m3]
283.15 K	794.005
293.15 K	785.764
303.15 K	777.284
313.15 K	768.476
323.15 K	759.309
333.15 K	749.679
343.15 K	739.528

CC(C)O [propan-2-ol] + NCCOCCO
x1 = 1
Details	mass density [kg/m3]
283.15 K	794.005
293.15 K	785.764
303.15 K	777.284
313.15 K	768.476
323.15 K	759.309
333.15 K	749.679
343.15 K	739.528
